The subject of test [1] is A549 cell line. Briefly: cells. The class given is cell-based. The settings on record: Homo sapiens. The procedure: A549 cells were obtained from ATCC and cultured with culture medium (D0819 DMEM 10% FBS 1% penicillin/streptomycin) at 37°C. Cell viability was measured using an MTT assay. MTT ((3-[4,5-dimethylthiazol-2-yl]-2,5-diphenyltetrazolium bromide) (1x), at 5 mg/ml) was added for 1 hour and formazan was dissolved with DMSO (dimethyl sulfoxide). Optical density at a wavelength of 570 nm was measured using a microplate reader (Hidex plate reader) to quantify the relative number of living cells. To determine treatment concentrations, cells were treated with serially diluted drugs until a concentration that reduced cell viability by around 50%. […] Cells were treated with the drugs at their designated concentrations for two days.

For test [2], the system named is A549 cell line. The test can be described thus: LDH cytotoxicity assay. The format is cell-based. The protocol: 30 minutes after LDH (Abcam Cat# ab65393) administration, optical density at a wavelength of 450 nm was measured using a microplate reader (Hidex plate reader) to quantify the relative LDH activity which was released into the media via the drug's cytotoxic effect.

Test [3] has as its system MCM6. Briefly: Western blot of MCM6 protein expression in A549 cells after drug treatment. (Immunoblotting shows a protein as a band on a membrane.)
For test [4], the system named is TTK. Briefly: Western blot of TTK protein expression in A549 cells after drug treatment. The format is cell-based. As to conditions: A549, 10µM. The protocol: PVDF membranes were blocked for 30 minutes with 5% skim milk and TBST (Tris Buffered Saline with 0.2% Tween 20) and then treated overnight on a shaker plate at 4°C with 0.5% skim milk with TBST and MCM6 (Abcam Cat# ab201683) and TTK (Abcam Cat# ab187520) primary antibodies diluted 1:20000 and for 30 minutes with TUBA1A (Abeam Cat# ab7291, RRID:AB_2241126) primary antibodies diluted 1:20000. The solution was then replaced with a new solution of 0.5% skim milk with TBST and anti-rabbit (Abeam Cat# ab6721, RRID:AB_955447) or anti-mouse (Abeam Cat# ab6789, RRID:AB_955439) secondary antibodies diluted 1:20000 for 30 minutes.

Where [5] appears, read: A549, 48 h, read-out: cell viability.
Where [6] appears, read: A549, dose dependent MTT assay, read-out: concentration which could reduce the cell viability by 50%.

Structures are written as SMILES. Read-outs that look alike come from different tables or passages of the source.

As usually defined, the viability is a per cent measure of how many cells are alive, often set against a control. For `O=C1c2c(O)ccc(O)c2C(=O)c2c(NCCNCCO)ccc(NCCNCCO)c21` [mitoxantrone], in test [1] (setting [5]), the viability at 0.1 µM stood at 52.2%. The IC50 in test [1] (setting [6]) was 0.1 µM. Further, the cytotoxicity at 0.1 µM in test [2] (Homo sapiens, A549, 48 h, read-out: necrotic cell death) worked out at 3.45%. Moreover, the “protein level of MCM6” value in test [3] (A549, 100nM) was “significantly reduced”.

For `COC[C@H]1OC(=O)c2coc3c2[C@@]1(C)C1=C(C3=O)[C@@H]2CCC(=O)[C@@]2(C)C[C@H]1OC(C)=O` [wortmannin], the viability at 10 µM in test [1] (setting [5]) was 62.3%. Further, in test [1] (A549, read-out: concentration which could reduce the cell viability by 50%), the IC50 came out at 10 µM. Moreover, the necrotic cell death result in test [2] is on record as “did not induce necrotic cell death”.

Consider `OCCCNc1cc(-c2ccnc(Nc3cccc(Cl)c3)n2)ccn1` [CGP-60474], for which the viability at 10 µM in test [1] (setting [5]) stood at 29.1%. Further, in test [1] (setting [6]), the IC50 was 10 µM. Moreover, the “effect on TTK protein level” value in test [4] is “showed an inhibitory effect on TTK”. Besides, in test [2] (A549, 10µM, lysis positive control 100%, untreated 0%), the necrotic cell death result is “did not induce necrotic cell death”. Besides, in test [3] (A549, 10µM), the “protein level of MCM6” value is “significantly reduced”.

Source of the values: EP4427750A1, “TREATMENT OF LUNG ADENOCARCINOMA” (priority 2023, dated 2024).
